Test results reported in the NIST ThermoML archive (doi:10.1021/je100605v).

Settings: Liquid, Closed cell (Static) method

CCO[Si](CC)(OCC)OCC [ethyltriethoxysilane]
Settings	vapor or sublimation pressure [kPa]
335 K	2.325
340.8 K	3.325
346.2 K	4.325
350.4 K	5.325
359.9 K	8.325
367.1 K	11.32
372.9 K	14.32
377.7 K	17.32
382 K	20.32
385.8 K	23.32
389 K	26.33
392 K	29.32
394.8 K	32.33
397.4 K	35.33
399.9 K	38.32
402.2 K	41.33
404.1 K	44.33
405.5 K	47.32
407.6 K	50.33
410.1 K	53.32
411.9 K	56.33
413.7 K	59.33
415.4 K	62.32
416.8 K	65.32
418.3 K	68.33
419.4 K	71.33
420.6 K	74.33
421.8 K	77.33
423.7 K	80.32
425.4 K	83.33
426.7 K	86.33
427.9 K	89.33
429.1 K	92.33
430.2 K	95.32
431.3 K	98.32
432 K	100.33
